A word on the EC50: it is the midpoint of the concentration-response curve. Higher therefore signals weaker potency.

The test system of one test is MUC1 epitope peptide. Briefly: Serum antibody response to MUC1 epitope peptide in immunized mice (RIA). It counts as in vivo, C57B16 and Balb/c mice. As to conditions: 100 μg i.p. with RIBI adjuvant, three immunizations, sera at 6 weeks. The text has this:
The strains of mice used for this example were inbred females 6 to 12 week old C57B16(H-2^b) and Balb/c (H-2^d), which were obtained from Jackson labs (Bar Harbor, Me.). […] The MUC1 peptide selected for these studies contained a motif that may bind to the H-2K^b molecule of the C57B16 mice; therefore, a strain of mouse that lacked this class I molecule binding motif (Balb/c) was also studied to determine the relative contribution of the class I binding motif to the antigen presentation properties of these peptides.
(§1) Preimmune sera were obtained from mice, which were subsequently immunized intraperitoneally with 100 μg of the indicated peptide with RIBI adjuvant (MPL+TDM+CWS) (Sigma Immunochemicals). Animals were boosted twice at two week intervals using the same injection procedure. Sera were obtained following three immunizations (at 6 weeks).
For radioimmunoassay (RIA), anti-peptide antibodies were determined, before and at different time points after immunization, in 96-well microtiter plates (Dynatech Laboratories, Inc.). Plates were coated with 50 μl of a 100 μg/ml appropriate peptide in phosphate-buffered saline (PBS) pH 7.4 solution overnight at 4° C. The wells were blocked by incubation with 5% dry milk in PBS pH 7.4 for at least two hours. Anti-peptide antibody titers were determined using serial dilutions of sera. The sera were diluted with PBS containing 0.05% Tween-20, pH 7.4 (washing buffer) and 50 μl of each dilution was incubated at 37° C. for 1 hour. The wells were then drained, washed 4 times with PBS-Tween and 50 μl of ^125I-goat anti-mouse Ab (1-2×10^4 cpm/well) was added and incubated for 1 hr at 25° C. After washing, specific radioactivity was recorded in a gamma counter (1272 CliniGamma, LKB).
Experimental groups were as follows: • Group A. mice immunized with peptide (1) • Group B. mice immunized with peptide (2) • Group C. mice immunized with peptide (1) plus peptide (2) • Group D. mice immunized with peptide (3) • Group E. mice immunized with peptide (4).

A further test has as its system MUC1 peptide. As to the kind of experiment: MUC1 specific antibody isotype titers in immunized mice (ELISA). It counts as in vivo, C57BL6 mice. As to conditions: for Ab titer IgA / Ab titer IgG1 / Ab titer IgG2a / Ab titer IgG2b / Ab titer IgG3 / Ab titer IgM: mean titer of responders, sera screened against MUC1 peptide, five mice. As for the experimental part:
as §1
Anti-peptide antibody isotype titers were determined by enzyme-linked immunosorbent assay (ELISA) carried out in 96-well microtiter plates. The plates were coated with 100 μg/ml of appropriate peptide in PBS, pH 7.4, and incubated overnight. The wells were blocked with 5% dry milk in PBS pH 7.4 for at least two hours. Anti-peptide titers were determined using serial dilutions of sera as described above. After the plates were washed 4 times, 50 μl of a 1:100 dilution of rabbit anti-mouse IgA, IgG1, IgG2a, IgG2b, IgG3 and IgM (Zymed) was added to each well and incubated at 25° C. for 1 hour. The plates were washed 4 times with washing buffer and 50 μl of 1:500 goat anti-rabbit conjugated to […] (Zymed) was incubated at 37° C. for 1 hour. Again, the plates were washed 4 times with washing buffer and bound enzyme was detected by the addition of 50 μl 1 mg/ml p-nitrophenyl phosphate (Sigma) in 10% diethanolamine (Sigma) pH 9.4. The reaction was stopped by the addition of 50 μl of 0.5 M sodium hydroxide and absorbance values (A405) were determined on Titertek Multiskan (Flow Laboratories, Irvine, Scotland).
The following experiment was performed in order to compare the potency of the molecular adjuvant of the present invention with a widely used method for enhancing the immune response to peptide epitopes. The objective was a direct comparison of the response to a construct of MUC1 epitope-C5a agonist and the same epitope conjugated to keyhole limpet hemocyanine (KLH) in mice.

Another test deals with human umbilical artery. Briefly: Smooth muscle contraction of human umbilical artery. The test is classed as cell-based. The following applies: for EC50: concentration resulting in 50% maximum contraction; for agonist behaviour relative to natural C5a (in words): umbilical artery contraction and MPO release assays; for pD2 ± SE: −log EC50 (M), mean ± SE, n=3. As for the experimental part: (§2) Statistical analysis of the values obtained from pharmacologic assays was performed using one-way analysis of variance (ANOVA).

Another test has as its system human PMNs. As to the kind of experiment: MPO release from human PMNs. The test is classed as cell-based. As to conditions: for EC50: 50% maximum release of myeloperoxidase; for pD2 ± SE: −log EC50 (M), mean ± SE, n=3. How it is done: as §2
The subject of test [1] is P815S (HBsAg transfectant) target cells. Briefly: HBsAg-specific CTL response of immunized mice, 51Cr-release cytotoxicity assay. The test is classed as in vivo, BALB/c mice. As to conditions: for % Specific Lysis: s.c. in PBS; for Ag-specific CTL response (in words): two or three s.c. injections at 21 day intervals, no added adjuvant. As for the experimental part: Groups of six to eight BALB/c mice were given bilateral s.c. injections in the inguinal area with (100 al each side) of a PBS solution containing 50-100 μg of the peptides. Booster injections were given s.c. in the inguinal region at 21-day intervals. Sera for Ab analysis were obtained by retro-orbital bleeds of mice under CO2 narcosis.
Three weeks after secondary) (2° immunization and two weeks after tertiary)(3° immunization, two to three mice from each experimental group were sacrificed by cervical dislocation and their spleens removed aseptically. Pooled splenic single-cell suspensions were prepared in RPMI-1640 medium (Sigma, St. Louis, Mo.) containing 10% FBS (Hyclone, Salt Lake City, Utah) and the following supplements: 10 mM HEPES buffer, 50 μM 2-ME, 2 mM L-glutamine, 50 μg/ml gentamicin sulfate, 100 Um′ penicillin, and 50 μg/ml streptomycin (all supplements from Sigma). This supplemented complete medium is designated RP10-SC. For culture, 75×10^6 pooled spleen cells in 5 ml of RP10-SC were pipetted into a 25 cm^2 T-flask (Corning). Next, 5 ml of RP 10-SC containing 150 nM of synthetic, L^d MHC class I-restricted peptide, […] (SEQ ID NO:12) were added to the flask. The flasks were incubated undisturbed in an upright position at 37° C. in 5% CO2. After 4 days of incubation, the cells were recovered from the T-flasks, washed once by centrifugation in fresh RP10-SC, resuspended in 5 ml RP10-SC, counted, and adjusted to 5×10^6 viable cells/ml.
The specific cell target used for measuring CTL activity was P815S, a transfectant cell line of P815 (H-2^d) expressing the HBsAg (14). P815S was grown in RP10-SC medium containing 400 μg/ml geneticin disulfate (G418, Sigma). The parental H-2^d mastocytoma cell line, P815 (ATTC #TIB64) grown in RP10-SC medium, was used as a non-specific target for CTL assays to measure % non-specific lysis.
The target cells, either P815S or P815, were washed 2 times in RP10-SC. For labeling, 5×10^6 target cells were mixed with 250 μCi ^51Cr-sodium chromate[400-1200 Ci (14.8-44.4 TBq)]/[…]; NEN Dupont, Boston, Mass.) in a 1.0 ml volume in a 50 ml conical tube and incubated in a 37° C. water bath for 90 mins. After incubation, the labeled cells were washed 3 times by centrifugation using 15 ml volumes of fresh RP10-SC and allowed to stand at room temperature for 30 mins. The pelleted cells were resuspended in RP10-SC at 1×10^6 cells/ml.
The recovered splenic effector cells at 5×10^6 cells/ml were serially diluted in triplicate in wells of round-bottom 96 well plates (Corning, 25850) in a total volume of 100 al/well and using RP10-SC as the diluent. Next, 100 μl volumes of ^51Cr-labeled targets, P815S or P815, at 1×10^6 cells/ml were added to the wells. Maximum release (MR) wells contained 100 al of target cells and 100 al of 2% (v/v) Tween 20 while spontaneous release (SR) wells contained labeled cells in medium alone. Effector-to-target ratios of 50:1, 25:1, 12.5:1, and 6.25:1 were routinely employed. The plates were centrifuged at 400×g and incubated at 37° C. in 5% CO2 for 4 hrs. After incubation, the supernatant fractions in the wells were collected using a Skatron Supernatant Collection System (Skatron Instruments, Sterlin, Va.). The amount of ^51Cr radioactivity in the supernatant fractions was measured using a Wallac 1470 Wizard gamma counter (Turku, Finland).

The mark [2] stands for this setting: Effector:Target 6.25:1, boost day 21, spleen cells day 42.
Setting [3] is: Effector:Target 12.5:1, boost day 21, spleen cells day 42.
[4] abbreviates: Effector:Target 25:1, boost day 21, spleen cells day 42.
[5] abbreviates: Effector:Target 50:1, boost day 21, spleen cells day 42, restimulated 4 days with S28-39.

“Also recorded” adds a separate entry of the source. Non-standard residues stand in square brackets, D forms with d. Residues, ends and D or L forms follow the SMILES beside them. No end group written: not given here.

On to “YSFKPMPLaRKQGGFLGL (YSFKPMPL[dA]RKQGGFLGL)”, for which the “antibody response (in words)” value in the test with MUC1 epitope peptide was “immune responses were not produced”.
“YKQGGFLGL-KLH (YKQGGFLGL-{KLH}; also: conjugated to KLH) [reference compound]”: in the test on MUC1 peptide, the “Ab titer IgA” value stood at 0, the “Ab titer IgG1” value was found to be 100, the “Ab titer IgG2a” value was determined as 0 and the “Ab titer IgG2b” value was found to be 0. Further, in the test on MUC1 peptide, the “Ab titer IgG3” value is 0 and the “Ab titer IgM” value is 5010. In addition, in the test on MUC1 peptide (responders / mice immunized), the “number of responders IgG1” value is “(2/5)” and the “number of responders IgM” value was “(4/5)”.
Regarding YKQGGFLGLYSFKPMPLaR, the “antibody response (in words)” value in the test with MUC1 epitope peptide (listed as MUC1 epitope/C5a agonist peptide conjugate) is reported as “appreciable antibody response”. In addition, in the test on MUC1 epitope peptide (listed as peptide 3), the “antibody response (in words)” value was “substantial responses”. In the test with MUC1 peptide (FIG. 3), the “isotypes of the anti-peptide antibodies produced” value is “IgM, IgG2a, and IgG2b”. The “specificity of antibody response for the MUC1 epitope” value in the test on MUC1 peptide (FIG. 4) is recorded as “high percentage of antibodies that are specific for the MUC1 epitope”. Also, in the test with MUC1 peptide, the “Ab titer IgA” value came out at 0, the “Ab titer IgG1” value is recorded as 0, the “Ab titer IgG2a” value was found to be 1260 and the “Ab titer IgG2b” value is on record as 1780. In the test with MUC1 peptide, the “Ab titer IgG3” value turned out to be 0 and the “Ab titer IgM” value is listed as 6310. In the test with MUC1 peptide (responders / mice immunized), the “number of responders IgG2a” value is “(5/5)”, the “number of responders IgG2b” value is on record as “(5/5)” and the “number of responders IgM” value was “(5/5)”.
For the compound YKQGGFLGL [reference compound], the “antibody response (in words)” value in the test with MUC1 epitope peptide is on record as “no appreciable increase in antibody response”.
With `CC[C@H](C)[C@H](N)C(=O)N1CCC[C@H]1C(=O)N[C@@H](CCC(N)=O)C(=O)N[C@@H](CO)C(=O)N[C@@H](CC(C)C)C(=O)N[C@@H](CC(=O)O)C(=O)N[C@@H](CO)C(=O)N[C@@H](Cc1c[nH]c2ccccc12)C(=O)N[C@@H](Cc1c[nH]c2ccccc12)C(=O)N[C@H](C(=O)N[C@@H](CO)C(=O)N[C@@H](CC(C)C)C(=O)N[C@@H](Cc1ccc(O)cc1)C(=O)N[C@@H](CO)C(=O)N[C@@H](Cc1ccccc1)C(=O)N[C@@H](CCCCN)C(=O)N1CCC[C@H]1C(=O)N[C@@H](CCSC)C(=O)N1CCC[C@H]1C(=O)N[C@@H](CC(C)C)C(=O)N[C@H](C)C(=O)N[C@@H](CCCNC(=N)N)C(=O)O)[C@@H](C)O` (H-IPQSLDSWWTSLYSFKPMPL[dA]R-OH), the EC50 in the test with human umbilical artery was 210 nM; with human PMNs, 1580 nM. The “agonist behaviour relative to natural C5a (in words)” value in the test on human umbilical artery is “full agonists”. The “pD2 ± SE” value amounted to 6.68 ± 0.17 in the test with human umbilical artery and 5.80 ± 0.04 in the test with human PMNs. The “% Specific Lysis” value in test [1] (setting [2]) was determined as 1%; in test [1] (setting [3]), 2%; in test [1] (setting [4]), 4%; in test [1] (setting [5]) it was 6%. Besides, the “Ag-specific CTL response (in words)” value in test [1] was “lack of a CTL response”.
Consider `CC[C@H](C)[C@H](N)C(=O)N1CCC[C@H]1C(=O)N[C@@H](CCC(N)=O)C(=O)N[C@@H](CO)C(=O)N[C@@H](CC(C)C)C(=O)N[C@@H](CC(=O)O)C(=O)N[C@@H](CO)C(=O)N[C@@H](Cc1c[nH]c2ccccc12)C(=O)N[C@@H](Cc1c[nH]c2ccccc12)C(=O)N[C@H](C(=O)N[C@@H](CO)C(=O)N[C@@H](CC(C)C)C(=O)N[C@@H](CCCNC(=N)N)C(=O)N[C@H](C(=O)N[C@@H](CCCNC(=N)N)C(=O)N[C@@H](CCCNC(=N)N)C(=O)N[C@@H](Cc1ccc(O)cc1)C(=O)N[C@@H](CO)C(=O)N[C@@H](Cc1ccccc1)C(=O)N[C@@H](CCCCN)C(=O)N1CCC[C@H]1C(=O)N[C@@H](CCSC)C(=O)N1CCC[C@H]1C(=O)N[C@@H](CC(C)C)C(=O)N[C@H](C)C(=O)N[C@@H](CCCNC(=N)N)C(=O)O)C(C)C)[C@@H](C)O` (H-IPQSLDSWWTSLRVRRYSFKPMPL[dA]R-OH), for which, in the test on human umbilical artery, the EC50 worked out at 180 nM, the “agonist behaviour relative to natural C5a (in words)” value is on record as “full agonists” and the “pD2 ± SE” value came out at 6.67 ± 0.22. Besides, in the test on human PMNs, the EC50 is 2150 nM and the “pD2 ± SE” value is given as 5.61 ± 0.19. In addition, the “Ag-specific CTL response (in words)” value in test [1] was “specific CTL response that was significantly above background levels; also recorded: robust CTL activity”.
Regarding IPQSLDSWWTSLRR [reference compound], the “% Specific Lysis” value was 0% in test [1] (setting [2]), 1% in test [1] (setting [3]), 2% in test [1] (setting [4]) and 2% in test [1] (setting [5]).
As to “IPQSLDSWWTSL [HBsAg L^d MHC class I-restricted peptide S28-39, reference compound]”, the “% Specific Lysis” value in test [1] (setting [2]) is 3%; in test [1] (setting [3]), 3%; in test [1] (setting [4]), 5%; in test [1] (setting [5]), 7%.
